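Results reflect a 48-hour exposure of cells in 96-well plates to compound at five concentrations. The concentration for full growth arrest is given as TGI.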 *1 amine or outer side, *2 acyl side, *3 side chain or, on linkers, in order; H or OH if unused. Where a SMILES comes first, the peptide text is derived from it. Bridges are numbered along the chain shown (N, C = ends). Roman numbers before positions name the chains, in order. [ ]: non-standard residue; d: D form. Actinocin(9to1) = Cc1c2oc3c(C)ccc(C(=O)[*:1])c3nc-2c(C(=O)[*:2])c(N)c1=O; NMeV = CN[CH](C(=O)O)C(C)C; Sar = CNCC(=O)O
Assays:
Assay in all cases: growth of human tumour cells (NCI), 48 h
MDA-MB-231 breast = test system: MDA-MB-231 breast
HCT-116 colon = test system: HCT-116 colon
M14 melanoma = test system: M14 melanoma
SNB-19 CNS = test system: SNB-19 CNS
UACC-62 melanoma = test system: UACC-62 melanoma
MDA-N = test system: MDA-N
EKVX NSCLC = test system: EKVX NSCLC
MOLT-4 leukemia = test system: MOLT-4 leukemia
A498 renal = test system: A498 renal
K-562 leukemia = test system: K-562 leukemia

| Compound | TGI (MDA-MB-231 breast) | TGI (HCT-116 colon) | TGI (M14 melanoma) | TGI (SNB-19 CNS) | TGI (UACC-62 melanoma) | TGI (MDA-N) | TGI (EKVX NSCLC) | TGI (MOLT-4 leukemia) | TGI (A498 renal) | TGI (K-562 leukemia) |
| --- | --- | --- | --- | --- | --- | --- | --- | --- | --- | --- |
| CCCCc1ccc(Nc2ncc3[nH]cnc3n2)cc1 | 30.3 µM | 34.5 µM | 38.9 µM | 44.4 µM | 49.6 µM | > 100 µM | 98.1 µM | > 100 µM | 45.4 µM | > 100 µM |
| Cc1cn(CC2=NCC(C)(C)N2)c(=O)[nH]c1=O | > 100 µM | > 100 µM | > 100 µM | > 100 µM | > 100 µM | > 100 µM | > 100 µM | > 100 µM | > 100 µM | > 100 µM |
| C=C(CC[C@@H](C(=O)O)[C@H]1[C@H](O)C[C@@]2(C)C3=CC[C@@H](C(=C)C)[C@](C)(CCC(=O)O)C3=CC[C@]12C)C(C)C | 40.7 µM | 30.7 µM | 32.7 µM | 32.9 µM | 29.1 µM | 32 µM | 32.3 µM | 64.4 µM | 38.8 µM | > 100 µM |
| CCCNC(C#N)c1ccc(C(C#N)NCCC)cc1 (stereo not given) | > 100 µM | > 100 µM | > 100 µM | > 100 µM | > 100 µM | > 100 µM | > 100 µM | > 100 µM | > 100 µM | > 100 µM |
| O=c1c2cc(I)ccc2nc(Sc2ncccc2[N+](=O)[O-])n1Cc1ccccc1 | > 100 µM | > 100 µM | > 100 µM | > 100 µM | > 100 µM | > 100 µM | 71.2 µM | > 100 µM | > 100 µM | > 100 µM |
| Cc1[nH]c2ccccc2c1C=Nc1ccc(N=Cc2c(C)[nH]c3ccccc23)cc1 | > 100 µM | 38.2 µM | > 100 µM | > 100 µM | > 100 µM | > 100 µM | > 100 µM | 43.1 µM | > 100 µM | 47 µM |
| COC(=O)c1cc(C#N)[nH]c1-c1ccc(C)s1 | > 100 µM | > 100 µM | > 100 µM | > 100 µM | > 100 µM | > 100 µM | 78.6 µM | > 100 µM | 68.1 µM | > 100 µM |
| C=CCSC1=N/C(=C\c2ccccc2)C(=O)N1CC=C | > 100 µM | > 100 µM | > 100 µM | > 100 µM | > 100 µM | > 100 µM | 77 µM | 19.1 µM | 83.9 µM | > 100 µM |
| O=c1c(C=Nc2ccc([N+](=O)[O-])cc2)c(O)n(-c2ccccc2)c(=O)n1-c1ccccc1 | > 100 µM | > 100 µM | > 100 µM | > 100 µM | > 100 µM | > 100 µM | > 100 µM | > 100 µM | > 100 µM | > 100 µM |
| O=C1Cc2c([nH]c3ccc(Br)cc23)-c2ccccc2N1 | > 100 µM | […] | > 100 µM | > 100 µM | > 100 µM | > 100 µM | > 100 µM | > 100 µM | > 100 µM | > 100 µM |
| CN(C)CCNC(=O)c1cccc2nc3c(nc12)-c1ccccc1C3=O | 23.8 µM | 88.3 µM | 31.9 µM | 47.6 µM | 60.4 µM | 25.7 µM | 48.6 µM | 7.52 µM | 29.5 µM | > 100 µM |
| CC[C@H](C)[C@H]1NC(=O)[C@@H](NC(=O)[C@@H](CC(C)C)N(C)CC2CCCN2C(=O)C(C)=O)[C@@H](C)OC(=O)[C@H](Cc2ccc(OC)cc2)N(C)C(=O)C2CCCN2C(=O)[C@H](CC(C)C)NC(=O)[C@@H](C)C(=O)[C@H](C(C)C)OC(=O)C[C@@H]1O (stereo not given in full) | 0.0251 µM | 0.0102 µM | 0.00972 µM | 0.0115 µM | 0.0182 µM | 0.02 µM | 0.0509 µM | 0.00608 µM | 0.0146 µM | 0.0158 µM |
| COc1cc(CC2c3cc(OC)c(OC)cc3CCN2C)c(Oc2cc3c(cc2OC)-c2c(O)c(OC)cc4c2C(C3)N(C)CC4)cc1OC (stereo not given) | 37.7 µM | > 100 µM | 22.8 µM | 57.4 µM | 40.1 µM | 36.8 µM | 53.1 µM | > 100 µM | 43 µM | > 100 µM |
| COC(=O)/C=C1\CCC(C)(C(=O)NS(=O)(=O)c2ccc(C)cc2)C1(C)C (stereo not given) | > 100 µM | > 100 µM | > 100 µM | > 100 µM | > 100 µM | > 100 µM | > 100 µM | > 100 µM | > 100 µM | > 100 µM |
| CCOC(=O)/C=C(/C(=O)OCC)n1cc(C)c(=O)n(Cc2cn(COCCOC(C)=O)nn2)c1=O | 50.9 µM | > 53.3 µM | > 100 µM | > 92.5 µM | 40.9 µM | > 85.4 µM | 31.3 µM | > 61.2 µM | > 100 µM | 63.2 µM |
| C=C(C)C(=O)[C@@]12C(=O)[C@@H](C)CC[C@H]1[C@H](C)C[C@@H]2C=C(C)C | 51.3 µM | 42.6 µM | > 100 µM | 32.5 µM | > 100 µM | 59.1 µM | 93.1 µM | 65.7 µM | > 100 µM | > 100 µM |
| O=C1c2c(nc3ccccc3c2-c2ccccc2)CN1Nc1ccccn1 | > 100 µM | > 100 µM | > 100 µM | > 100 µM | > 100 µM | > 100 µM | > 100 µM | > 100 µM | 18.1 µM | > 100 µM |
| Fc1ccc(N=NN2CCCC2)cc1 | > 100 µM | > 100 µM | > 100 µM | > 100 µM | > 100 µM | > 100 µM | > 100 µM | > 100 µM | > 100 µM | > 100 µM |
| C(=C\c1ccccc1)/C=N/c1nc2cc3sc(/N=C/C=C/c4ccccc4)nc3cc2s1 | > 100 µM | > 100 µM | > 100 µM | > 100 µM | > 100 µM | > 100 µM | > 100 µM | > 76.1 µM | > 100 µM | > 100 µM |
| COc1cc(/C=C2\N=C(c3ccccc3)N(c3nc4c(OC)ccc(OC)c4s3)C2=O)cc(OC)c1OC | > 100 µM | > 100 µM | > 100 µM | > 100 µM | > 100 µM | > 100 µM | > 100 µM | > 100 µM | > 100 µM | > 100 µM |
| Cc1c2oc3c(C)ccc(C(=O)NC4C(=O)NC(C(C)O)C(=O)N5CCCC5C(=O)N(C)CC(=O)N(C)C(C(C)C)C(=O)OC4C)c3nc-2c(C(=O)NC2C(=O)NC(C(C)O)C(=O)N3CCCC3C(=O)N(C)CC(=O)N(C)C(C(C)C)C(=O)OC2C)c(N)c1=O (stereo not given) (I: TTP[Sar][NMeV] / II: TTP[Sar][NMeV]; ester I:1-I:C, II:1-II:C; linker I:N-II:N via Actinocin(9to1); configuration not given here) | > 100 µM | > 100 µM | 3.77 µM | > 100 µM | 0.528 µM | 11.8 µM | > 42.2 µM | 0.598 µM | 2.71 µM | 3.43 µM |
| COC(=O)/C=C(/C(=O)OC)c1c(C)c(C)c2c(C)cc(C)cc(C)c1-2 | > 100 µM | > 100 µM | 37.3 µM | > 100 µM | > 100 µM | 4.83 µM | > 100 µM | > 100 µM | > 100 µM | > 100 µM |
| NC(=S)Nc1[nH]c(=S)nc2c1SC1=N/C(=C\c3ccco3)C(=O)N12 | > 100 µM | > 100 µM | > 100 µM | > 100 µM | > 100 µM | > 100 µM | > 100 µM | > 100 µM | > 100 µM | > 66.5 µM |
| O=c1cc(N2CCCC2)[nH]c(=O)n1-c1cccc(C(F)(F)F)c1 | > 100 µM | > 100 µM | > 100 µM | > 100 µM | > 100 µM | > 100 µM | > 100 µM | > 100 µM | > 100 µM | > 100 µM |
| CSC1=C(C#N)C(=O)N(c2ccc(C)cc2)C(=S)C1C#N (stereo not given) | > 100 µM | > 100 µM | > 100 µM | > 100 µM | > 100 µM | > 100 µM | > 100 µM | > 100 µM | > 100 µM | > 100 µM |
| NC(=O)c1ccc2c(c1)S(=O)(=O)c1ccccc1C2=O | > 100 µM | > 100 µM | > 100 µM | > 100 µM | > 100 µM | > 100 µM | > 100 µM | > 100 µM | > 100 µM | > 100 µM |
| COc1cccc(N(CN2CC=CC2=O)C(C)=O)c1 | > 100 µM | > 100 µM | > 100 µM | > 100 µM | > 100 µM | > 100 µM | > 100 µM | > 100 µM | > 100 µM | > 100 µM |
| COC(=O)n1c(=O)n(-c2ccccc2)c(=O)n1C(=O)OC | > 100 µM | > 100 µM | > 100 µM | > 100 µM | > 100 µM | > 100 µM | > 100 µM | > 100 µM | > 100 µM | > 100 µM |
| CSc1c(C#N)c(=O)[nH]c2n[nH]c(C)c12 | > 100 µM | > 100 µM | > 100 µM | > 100 µM | > 100 µM | > 100 µM | > 100 µM | > 100 µM | > 100 µM | > 100 µM |

From PubChem BioAssay (NCI)
